Assays:
[1] = Lipophilicity, partition between octanol and water; type: physicochemical; conditions: experimentally determined
A549 cells [2] = assay: Propidium iodide uptake, flow cytometry; type: cell-based, human; conditions: for PI uptake versus untreated control cells: 20 μM for 12 h; for effect of N-acetylcysteine pretreatment on induced PI uptake: N-acetylcysteine 3 mM for 1 h; for effect of necrostatin-1 on mediated PI uptake: necrostatin-1 60 μM
Method: Intracellular ROS production and mitochondrial membrane depletion contribute to necroptosis. Cells undergoing necroptosis display necrosis-like morphological features such as loss of cell membrane integrity, increase in organelle and cell volume (oncosis), and intact nuclear membrane. To further test whether 1- and 2-treatment can trigger necroptosis, Hoechst 33258/propidium iodide (PI) double staining was carried out to determine nuclear membrane morphology and integrity. Hoechst 33258 is a DNA minor groove binder that is routinely used to visualize the nucleus without the need for cell permeabilization. When used without cell permeabilization agents, PI stains the nuclei of necrotic cells. Early-stage apoptotic and normal cells maintain cell membrane integrity and thus are not stained by PI. A549 cells were treated with 1 and 2 (20 μM for 12 h), incubated with Hoechst 33258 and PI, and imaged using a fluorescence microscope.
Propidium Iodide Uptake. Untreated and treated A549 cells (1.5×10^6 cells/well) grown in six-well plates were washed with PBS (1 mL×3), harvested, incubated with PI (5 μM), and analyzed by using the FACSCalibur-HTS flow cytometer (BD Biosciences) (20 000 events per sample were acquired). The FL2 channel was used to assess intracellular PI uptake. Cell populations were analyzed using the FlowJo software (Tree Star).

A549 cells [3] = assay: Intracellular ROS assay (DCFH-DA, flow cytometry); type: cell-based, human; conditions: for induced ROS production in the presence of necrostatin-1: 20 μM for 12 h with necrostatin-1 60 μM; for intracellular ROS versus untreated control cells: 1, 2, shikonin 20 μM for 12 h, H2O2 1 mM for 1 h
Method: Characterization of Necroptotic Features. Having established that necrosome formation is a determinant of 1 and 2 activity, additional studies were performed to understand the cascade of events leading from necrosome formation to cell death. Necrosomes generate abnormally high levels of mitochondrial ROS, leading to ATP depletion and eventual degradation of the mitochondrial membrane potential. With this fact in mind, intracellular ROS production was quantified by flow cytometry using 6-carboxy-2′,7′-dichlorodihydrofluorescein diacetate (DCFH-DA), a well-established ROS indicator.
In FIG. 2: (A) Representative histograms displaying the green fluorescence emitted by DCFH-DA-stained A549 cells (i) and A549 cells treated with 1(20 μM for 12 h) (iii) or 1 (20 μM for 12 h) with nectrostatin-1 (60 μM for 12 h) (ii). (B) Representative histograms displaying the green fluorescence emitted by DCFH-DA-stained A549 cells (i) and A549 cells treated with 2 (20 μM for 12 h) (iii) or 2 (20 μM for 12 h) with nectrostatin-1 (60 μM for 12 h) (ii). (C) Representative histograms displaying the green fluorescence emitted by DCFH-DA-stained A549 cells (i) and A549 cells treated withH2O2 (1mM for 1 h) (iii). (D) Representative histograms displaying the green fluorescence emitted by DCFH-DA-stained A549 cells (i) and A549 cells treated with shikonin (20 μM for 12 h) (iii).
Intracellular ROS Assay. Untreated and treated A549 cells (1.5×10^6 cells/well) grown in six-well plates were incubated with 6-carboxy-2′,7′-dichlorodihydrofluorescein diacetate (20 μM) for 30 min. The cells were then washed with PBS (1 mL x 3), harvested, and analyzed by using a FACSCalibur-HTS flow cytometer (BD Biosciences) (20 000 events per sample were acquired). The FL1 channel was used to assess intracellular ROS levels. Cell populations were analyzed using the FlowJo software (Tree Star).

[4] = tested on: HCT116 p53+/+ and HCT116 p53−/− cells; assay: Cytotoxicity in HCT116 p53+/+ versus p53-/- cells; type: cell-based; conditions: 72 h, FIG. 3B
Method: (PARP-1). PARP-1 is a nuclear enzyme that is involved in DNA repair and transcriptional regulation. DNA damage can trigger PARP-1 activity, resulting in ATP and NAD depletion and bioenergetics- mediated cell death. To determine whether PARP-1 activity is a factor in 1- and 2-mediated cell death, cytotoxicity assays were conducted with wild-type mouse embryonic fibroblast cells (MEFs PARP-1+/+) and the corresponding PARP-1-null cells (MEFs PARP-1−/−). […] Recently, p53 has also been reported to play a role in necroptosis. p53 induces cathepsin Q, a lysosomal protease that cooperates with ROS to execute necrosis. To investigate whether p53 might play a role in 1- and 2-mediated necroptosis, cytotoxicity studies were conducted with HCT116 p53^+/+ nd HCT116 p53^−/− cells.
Cell Cycle Analysis. To gain a more complete understanding of the cellular response evoked, DNA-flow cytometric studies were conducted to determine the effect of 1 and 2 on the cell cycle. A549 cells were treated with 1 or 2 (2 μM), and the cell cycle was determined over the course of 72 h. […] Upon further incubation (72 h), large populations of cell debris were detected (32%), indicative of cell death. […]
Cytotoxicity MTT Assay. […] The absorbance of the solution wells was read at 550 nm. Absorbance values were normalized to DMSO-containing control wells and plotted as the concentration of test compound versus % cell viability. […]

[5] = tested on: HT-29 (colorectal adenocarcinoma); assay: MTT cytotoxicity assay, HT-29 cells; type: cell-based, human; conditions: for IC50: Table 2, cisplatin-resistant cell line, 72 h exposure; for IC50 lower in HT-29 cells than IC50 of cisplatin: ratio to cisplatin
Method: Cytotoxicity MTT Assay. […] Cells (2×10^3 cells/well) were seeded in a 96-well plate. […] The final concentration of DMSO in each well was 0.5%, and this amount was also present in the untreated control. After 72 h, the medium was removed, 200 μL of a 0.4 mg/mL solution of MTT in DMEM, RPMI, or McCoy's 5A was added, and the plate was incubated for an additional 1-2 h. The DMEM/MTT, RPMI/MTT, or McCoy's 5A/MTT mixture was aspirated, and 200 μL of DMSO was added to dissolve the resulting purple formazan crystals. The absorbance of the solution wells was read at 550 nm. Absorbance values were normalized to DMSO-containing control wells and plotted as the concentration of test compound versus % cell viability. IC50 values were interpolated from the resulting dose-dependent curves. The reported IC50 values are the average from at least three independent experiments, each of which consisted of six replicates per concentration level.

[6] = tested on: DU 145 (prostate carcinoma); assay: MTT cytotoxicity assay, DU 145 cells; type: cell-based, human; conditions: Table 2; cisplatin-resistant cell line; 72 h exposure; read-out: IC50 DU 14S prostate carcinoma

| Compound | log P [1] | PI uptake versus untreated control cells (A549 cells [2]) | effect of N-acetylcysteine pretreatment on induced PI uptake (A549 cells [2]) | effect of necrostatin-1 on mediated PI uptake (A549 cells [2]) | induced ROS production in the presence of necrostatin-1 (A549 cells [3]) | intracellular ROS versus untreated control cells (A549 cells [3]) | potency in HCT116 p53+/+ compared with HCT116 p53−/− [4] | IC50 [5] [nM] | IC50 lower in HT-29 cells than IC50 of cisplatin [5] [fold] | IC50 [6] [nM] |
| --- | --- | --- | --- | --- | --- | --- | --- | --- | --- | --- |
| C[O][Re](=[O])([Cl])[Cl].c1ccc(-c2ccnc3c2ccc2c(-c4ccccc4)ccnc23)cc1 [Compound 1, [ReO(OMe)(4,7-diphenyl-1,10-phenanthroline)-Cl2]] | 1.20 | higher PI uptake | significantly decreased | could block | attenuated | markedly higher levels of ROS | statistically similar | 85 ± 11 | 300 | 2840 ± 381 |
| C[O][Re-2]1(=[O])([Cl])([Cl])[n+]2cc(C)c(C)c3ccc4c(C)c(C)c[n+]1c4c32 [Compound 2, [ReO(OMe)(3,4,7,8-tetramethyl-1,10-phenanthroline)Cl2]] | 0.95 | higher PI uptake | significantly decreased | could block | attenuated | markedly higher levels of ROS | statistically similar | 95 ± 20 | 300 | 1370 ± 84 |
